{
  "source": "patent US5585277A",
  "about": "“Screening method for identifying ligands for target proteins” (Scriptgen Pharmaceuticals, Inc., priority 1995, dated 1996)",
  "key": {"[1]": {"system": "Dihydrofolate Reductase (DHFR)", "assay": "Protection of DHFR from proteolytic digestion by Proteinase K, undigested DHFR quantified by ELISA", "format": "binding", "settings": "same methods as Example 1, separate experiments, 54° C., 5 minutes", "description": "(§1) Samples were removed and undigested DHFR was quantified by ELISA as follows:\n(§2) (a) Protease incubations were diluted 50 fold with Tris-buffered saline (TBS);\n(§3) (b) 50 μl diluted samples were transferred to the wells of an ELISA plate and incubated 60 minutes at room temperature;\n(§4) (e) plate wells were washed as in (c) above;\n(§5) (g) plate wells were washed as in (c); and […]"}, "[2]": {"system": "Dihydrofolate Reductase (DHFR)", "assay": "Protection of DHFR from Proteinase K digestion in the presence of a mixture of all 20 common amino acids, ELISA", "format": "binding", "settings": "10^-5M ligand, 10^-5M of all 20 common amino acids, DHFR 2.1 μg/ml, Proteinase K 80 μg/ml, 54° C., 5 minutes", "description": "The following were combined and incubated at 54° C. for 5 minutes: DHFR (2.1 μg/ml), Proteinase K (80μg/ml), 0.1M Tris-HCl [pH 7.5], 10^-5M of all 20 common amino acids and either 0 or 10^-5M ligand.\nas §1, §2, §3, §4, §5"}},
  "data": [
    {"smiles": "NC(=O)C1=CN([C@@H]2O[C@H](COP(=O)(O)OP(=O)(O)OC[C@H]3O[C@@H](n4cnc5c(N)ncnc54)[C@H](OP(=O)(O)O)[C@@H]3O)[C@@H](O)[C@H]2O)C=CC1", "note": "[NADPH]", "values": [
      {"measurement": "concentration at which ligand inhibits proteolysis of DHFR", "setting": "[1]", "value": "≥ 10^-5"},
      {"measurement": "protection of DHFR from digestion relative to the absence of ligands", "setting": "[2]", "value": "Protects Dihydrofolate Reductase (DHFR) From Proteolytic Digestion"}
    ]}
  ]
}
